Test system: Wnt activity (Sp5-Luc reporter, TCF/LEF binding sites) in SW480 colon carcinoma cells
Assay: Sp5-Luc Wnt reporter gene screening assay in SW480 colon carcinoma cells
Format: cell-based, human
Details: not given
From the text: The screening assay for Wnt activity is described as follows. Reporter cell lines can be generated by stably transducing cancer cell lines (e.g., colon cancer) or primary cells (e.g., IEC-6 intestinal cells) with a lentiviral construct that includes a Wnt-responsive promoter driving expression of the firefly luciferase gene.
SW480 colon carcinoma cells were transduced with a lentiviral vector expressing luciferase with a human Sp5 promoter consisting of a sequence of eight TCF/LEF binding sites. SW480 cells stably expressing the Sp5-Luc reporter gene and a hygromycin resistance gene were selected by treatment with 150 μg/ml of hygroinycin for 7 days. These stably transduced SW480 cells were expanded in cell culture and used for all further screening activities. For Sp5-Luc reporter gene assays, the cells were plated at 10,000 cells/well in 96-well plates with growth medium containing 10% fetal calf serum and incubated overnight at 37° C. and 5% CO2. Each compound was dissolved in DMSO as a 10 mM stock in standard j-vials and used to prepare compound source plates in dose-response format with 3-fold serial dilutions and a 10 mM top concentration. Compound transfer from serially diluted source plates to assay plates containing the cells was accomplished using a pintool (Multimek 96, Beckman equipped with V&P Scientific FP1S50H pins) based liquid handling protocol. This protocol used a slotted pin to transfer 50 nl of compound from a source plate well to an assay plate well containing 50 μl of cells in growth medium. […] Control wells received 50 nl of DMSO treatment for nommlization and calculating IC50 values. The treated cells were incubated at 37° C. and 5% CO2 for an additional forty-two hours. Following incubation, the growth medium was removed and 50 μl of BrightGlo luminescence reagent (Promega) was added to each well of the 96-well assay plates. The plates were placed on an orbital shaker for 5 min and then luminescence was quantified on the Victor3 (Perkin Elmer) plate reader. Readings were normalized to DMSO only treated cells, and normalized activities were utilized for IC50 calculations using the dose-response log (inhibitor) vs. response—variable slope (four parameters) nonlinear regression feature available in GraphPad Prism 5.0 or 6.0.

SMILES	IC50 [nM]
Fc1cccc(-c2ccnc3[nH]c(-c4n[nH]c5cnc(-c6ccncc6)cc45)nc23)c1 [Compound 952, -(7-(3-Fluorophenyl)-3H-imidazo[4,5-b]pyridin-2-yl)-5-(pyridin-4-yl)-1 H-pyrazolo[3,4-c]pyridine]	> 1000
CC(C)CC(=O)Nc1cncc(-c2cc3c(-c4nc5c(-c6cc(F)cc(OCCN(C)C)c6)ccnc5[nH]4)n[nH]c3cn2)c1 [Compound 1262]	> 10000

Same assay, conditions: Homo sapiens

SMILES	IC50 [nM]
CCCC(=O)Nc1cncc(-c2cc3c(-c4nc5c(-c6cccc(F)c6)ccnc5[nH]4)n[nH]c3cn2)c1 [Compound 17, N-(5-(3-(7-(3-Fluorophenyl)-3H-imidazo[4,5-b]pyridin-2-yl)-1H-pyrazolo[3,4-c]pyridin-5-yl)pyridin-3-yl)butyramide]	59.7
c1ccc(CNCc2cncc(-c3cc4c(-c5nc6c(-c7cccnc7)ccnc6[nH]5)n[nH]c4cn3)c2)cc1 [Compound 101]	> 10000
CCCC(=O)Nc1cncc(-c2cc3c(-c4nc5c(-c6ccoc6)ccnc5[nH]4)n[nH]c3cn2)c1 [Compound 303, N-(5-(3-(7-(Furan-3-yl)-3H-imidazo[4,5-b]pyridin-2-yl)-1H-pyrazolo[3,4-c]pyridin-5-yl)pyridin-3-yl)butyramide]	78.8
Fc1cccc(-c2ccnc3[nH]c(-c4n[nH]c5cnc(-c6cncc(OC7CCNCC7)c6)cc45)nc23)c1 [Compound 944, 3-(7-(3-Fluorophenyl)-3H-imidazo[4,5-b]pyridin-2-yl)-5-(5-(piperidin-4-yloxy)pyridin-3-yl)-1H-pyrazolo[3,4-c]pyridine]	> 10000
Fc1cccc(-c2ccnc3[nH]c(-c4n[nH]c5cnc(-c6cncc(OC7CCCCC7)c6)cc45)nc23)c1 [Compound 943, 5-(5-(Cyclohexyloxy)pyridin-3-yl)-3-(7-(3-fluorophenyl)-3H-imidazo[4,5-b]pyridin-2-yl)-1H-pyrazolo[3,4-c]pyridine]	950
CN(C)c1cncc(-c2cc3c(-c4nc5c(N6CCCCC6)ccnc5[nH]4)n[nH]c3cn2)c1 [Compound 163, N,N-Dimethyl-5-(3-(7-(piperidin-1-yl)-3H-imidazo[4,5-b]pyridin-2-yl)-1H-pyrazolo[3,4-c]pyridin-5-yl)pyridin-3-amine]	1030
CCCCC(=O)Nc1cncc(-c2cc3c(-c4nc5c(-c6cc(F)cc(NCCN(C)C)c6)ccnc5[nH]4)n[nH]c3cn2)c1 [Compound 460]	139
Fc1cccc(-c2ccnc3[nH]c(-c4n[nH]c5cnc(C6CCNCC6)cc45)nc23)c1 [Compound 937, 3-(7-(3-Fluorophenyl)-3H-imidazo[4,5-b]pyridin-2-yl)-5-(piperidin-4-yl)-1H-pyrazolo[3,4-c]pyridine]	1860
CCNCc1cncc(-c2cc3c(-c4nc5c(-c6cc(F)cc(NCCN(C)C)c6)ccnc5[nH]4)n[nH]c3cn2)c1 [Compound 448, N^1-(3-(2-(5-(5-((Ethylamino)methyl)pyridin-3-yl)-1H-pyrazolo[3,4-c]pyridin-3-yl)-3H-imidazo[4,5-b]pyridin-7-yl)-5-fluorophenyl)-N^2,N^2-dimethylethane-1,2-diamine]	> 10000
Fc1cccc(-c2ccnc3[nH]c(-c4n[nH]c5cnc(C6=CCNCC6)cc45)nc23)c1 [Compound 938, 3-(7-(3-Fluorophenyl)-3H-imidazo[4,5-b]pyridin-2-yl)-5-(1,2,3,6-tetrahydropyridin-4-yl)-1H-pyrazolo[3,4-c]pyridine]	> 1000
CC(C)(C)C(=O)Nc1cncc(-c2cc3c(-c4nc5c(-c6ccc(F)s6)ccnc5[nH]4)n[nH]c3cn2)c1 [Compound 346, N-(5-(3-(7-(5-Fluorothiophen-2-yl)-3H-imidazo-[4,5-b]pyridin-2-yl)-1H-pyrazolo[3,4-c]pyridin-5-yl)pyridin-3-yl)pivalamide]	62.1
O=C(CC1CCCCC1)Nc1cncc(-c2cc3c(-c4nc5c(-c6cccc(F)c6)ccnc5[nH]4)n[nH]c3cn2)c1 [Compound 951, 2-Cyclohexyl-N-(5-(3-(7-(3-fluorophenyl)-3H-imidazo[4,5-b]pyridin-2-yl)-1H-pyrazolo[3,4-c]pyridin-5-yl)pyridin-3-yl)acetamide]	> 10000
CN(C)CC(=O)Nc1cncc(-c2cc3c(-c4nc5c(-c6cccc(F)c6)ccnc5[nH]4)n[nH]c3cn2)c1 [Compound 1437, 2-(Dimethylamino)-N-(5-(3-(7-(3-fluorophenyl)-3H-imidazo[4,5-b]pyridin-2-yl)-1H-pyrazolo[3,4-c]pyridin-5-yl)pyridin-3-yl)acetamide]	646
c1cncc(-c2ccnc3[nH]c(-c4n[nH]c5cnc(-c6cncc(CN7CCCCC7)c6)cc45)nc23)c1 [Compound 93, 5-(5-(Piperidin-1-ylmethyl)pyridin-3-yl)-3-(7-(pyridin-3-yl)-3H-imidazo[4,5-b]pyridin-2-yl)-1H-pyrazolo[3,4-c]pyridine]	> 10000
CC(C)C(=O)Nc1cncc(-c2cc3c(-c4nc5c(-c6ccccc6F)ccnc5[nH]4)n[nH]c3cn2)c1 [Compound 61, N-(5-(3-(7-(2-Fluorophenyl)-3H-imidazo[4,5-b]pyridin-2-yl)-1H-pyrazolo[3,4-c]pyridin-5-yl)pyridin-3-yl)isobutyramide]	77.8
Fc1ccc(-c2ccnc3[nH]c(-c4n[nH]c5cnc(-c6cncc(CN7CCCC7)c6)cc45)nc23)s1 [Compound 352, 3-(7-(5-Fluorothiophen-2-yl)-3H-imidazo[4,5-b]pyridin-2-yl)-5-(5-(pyrrolidin-1-ylmethyl)pyridin-3-yl)-1H-pyrazolo[3,4-c]pyridine]	156
Fc1cccc(-c2ccnc3[nH]c(-c4n[nH]c5cnc(-c6cncc(OCCN7CCCC7)c6)cc45)nc23)c1 [Compound 946, 3-(7-(3-Fluorophenyl)-3H-imidazo[4,5-b]pyridin-2-yl)-5-(5-(2-(pyrrolidin-1-yl)ethoxy)pyridin-3-yl)-1H-pyrazolo[3,4-c]pyridine]	> 10000
CC(C)CC(=O)Nc1cncc(-c2cc3c(-c4nc5c(-c6cc(O)cc(F)c6)ccnc5[nH]4)n[nH]c3cn2)c1 [Compound 1350, N-(5-(3-(7-(3-Fluoro-5-hydroxyphenyl)-3H-imidazo[4,5-b]pyridin-2-yl)-1H-pyrazolo[3,4-c]pyridin-5-yl)pyndin-3-yl)-3-methylbutanamide]	253
Fc1cccc(-c2ccnc3[nH]c(-c4n[nH]c5cnc(-c6cncc(OCc7ccccc7)c6)cc45)nc23)c1 [Compound 950, 5-(5-(Benzyloxy)pyridin-3-yl)-3-(7-(3-fluorophenyl)-3H-imidazo[4,5-b]pyridin-2-yl)-1H-pyrazolo[3,4-c]pyridine]	4430

Test system: primary human fibroblasts derived from IPF patients (LL29 cells)
Assay: Inhibition of the fibrotic process in TGF-β1-treated primary human fibroblasts from IPF patients (αSMA staining)
Format: cell-based
Details: Fibroblast, 96 h, TGF-β1 20 ng/mL, 4 days, read-out: Inhibition of fibrosis EC50
From the text: The above synthesized compounds were screened using primary human fibroblasts (derived from IPF patients) treated with TGF-β1 to determine their ability to inhibit the fibrotic process.
Human Fibroblast Celt Culture: Primary human fibroblasts derived from IPF patients (LL29 cells) [^1Xiaoqiu Liu, et.al., “Fibrotic Luna Fibroblasts Show Blunted Inhibition by cAMP Due to Deficient cAMP Response Element-Binding Protein Phosphorylation”, Journal of Pharmacology and Experimental Therapeutics (2005), 315(2), 678-687; ^2Watts, K. L., et.al., “RhoA signaling modulates cyclin D1 expression in human lung fibroblasts; implications for idiopathic pulmonary fibrosis”, Respiratory Research (2006), 7(1), 88] were obtained from American Type Culture Collection (ATCC) and expanded in F12 medium supplemented with 15% Fetal Bovine Serum and Penicillin/Streptomycin.
Compound Screening: Each compound was dissolved in DMSO as a 10 mM stock and used to prepare compound source plates. Serial dilution (1:2, 11-point dose-response curves from 10 μM to […]) and compound transfer was performed using the ECHO 550 (Lahcyte, Sunnyvale, Calif.) into 384-well clear bottom assay plates (Greiner Bio-One) with appropriate DMSO backfill fhr a final DMSO concentration of 0.1%. LL29 cells were plated at 1,500 cells/well in 80 μl/well F12 medium supplemented with 1% Fetal Bovine Serum. One hour after addition of the cells. TGF-β1 (Peprotech; 20 ng/mL) was added to the plates to induce fibrosis (ref. 1 and 2 above), Wells treated with TGF-β1 and containing DMSO were used as controls. Cells were incubated at 37° C. and 5% CO2 for 4 days. Following incubation for 4 days, SYTOX green nucleic acid stain (Life Technologies [Thermo Fisher Scientific]) was added to the wells at a final concentration of 1 uM and incubated at room temperature for 30 min. Cells were then fixed using 4% formaldehyde (Electron Microscopy Sciences), washed 3 times with PBS followed by blocking and penneabilization using 3% Bovine Serum Albumin (BSA; Sigma) and 0.3% Triton X-100 (Sigma) in PBS. Cells were then stained with antibody specific to α-smooth muscle actin (αSMA; Abeam) (ref 1 and 2 above) in 3% Bovine Serum Albumin (BSA; Sigma) and 0.3% Triton X-100 (Sigma) in PBS, and incubated overnight at 4° C. Cells were then washed 3 times with PBS, followed by incubation with Alexa Flor-647 conjugated secondary antibody (Life Technologies [Thermo Fisher Scientific]) and DAPI at room temperature for 1 hour, Cells were then washed 3 times with PBS and plates were sealed for imaging. αSMA staining was imaged by excitation at 630 nm and emission at 665 nm and quantified using the Compartmental Analysis program on the CellInsight CX5 (Thermo Scientific). Dead or apoptotic cells were excluded from analysis based on positive SYTOX green staining. % of total cells positive for αSMA were counted in each well and normalized to the average of 11 wells treated with TGF-β1 on the same plate using Dotmatics' Studies Software. The normalized averages (fold change over untreated) of 3 replicate wells for each compound concentration were used to create dose-responses curves and EC50 values were calculated using non-linear regression curve fit in the Dotmatics' Studies Software. The EC50 values are reported.

SMILES	EC50 [nM]
CCCC(=O)Nc1cncc(-c2cc3c(-c4nc5c(-c6cccc(F)c6)ccnc5[nH]4)n[nH]c3cn2)c1 [Compound 17, N-(5-(3-(7-(3-Fluorophenyl)-3H-imidazo[4,5-b]pyridin-2-yl)-1H-pyrazolo[3,4-c]pyridin-5-yl)pyridin-3-yl)butyramide]	≤ 9
c1ccc(CNCc2cncc(-c3cc4c(-c5nc6c(-c7cccnc7)ccnc6[nH]5)n[nH]c4cn3)c2)cc1 [Compound 101]	≤ 9
CCCC(=O)Nc1cncc(-c2cc3c(-c4nc5c(-c6ccoc6)ccnc5[nH]4)n[nH]c3cn2)c1 [Compound 303, N-(5-(3-(7-(Furan-3-yl)-3H-imidazo[4,5-b]pyridin-2-yl)-1H-pyrazolo[3,4-c]pyridin-5-yl)pyridin-3-yl)butyramide]	20

— US9815854B2, “3-(3H-imidazo[4,5-B]pyridin-2-yl)-1H-pyrazolo[3,4-C]pyridine and therapeutic uses thereof” (Samumed, LLC, priority 2014, dated 2017)
